Measurements published in US6946297B2, “System for stabilizing samples” (priority 1999, dated 2005).

Experiments:
Type in all cases: cell-based
Escherichia coli = assay: Survival of organisms in inoculated urine with preservative components, 24 hours at room temperature; set-up: key to Survival value esco: 24 h count / control count; 1 = no change, 0.1 = 1-log decrease
Description: (§1) Antimicrobial activity for each active ingredient in the Chemistat I formulations was first determined for representative organisms listed in Table I. A culture for each organism of interest on blood agar was incubated at 36° C. overnight. About two to three colonies of the organism were transferred via sterile swab from the blood agar culture into a 5 ml Mueller-Hinton broth culture tube, which was then incubated on a rotator for about two to three hours at 36° C. Using a spectrophotometer set at a wavelength of 630 nm, the turbidity of broth culture was adjusted by the addition of Mueller-Hinton broth to an optical density equivalent to approximately 1×10^8 colony forming units (cfu)/ml to form an inoculum solution. An aliquot of the inoculum solution was plated onto blood agar to determine the actual control organism count. For each component listed in Table II, the component was added to filter-sterilized pooled normal urine at the concentration given in Table II to form a test sample. The test sample was then inoculated with an aliquot of the inoculum solution providing a final organism count of approximately 1×10^6 cfu/ml of test sample. Immediately after thorough mixing, an aliquot of the test sample was removed and serially diluted in PBS, and serial dilutions were plated onto blood agar to determine the Time Zero organism count. The inoculated plates were incubated at 36° C., and organism counts were recorded after 18-24 hours. After incubating the test sample for 24 hours at room temperature, an aliquot of the test sample was again removed, serially diluted in PBS and plated onto blood agar. After incubating for 18-24 hours at 36° C., organism counts were obtained. The organism count obtained after 24 hours incubation at room temperature was divided by the control organism count to provide the survival value of each organism as recorded in Table II. With respect to changes in microbial count, a survival value of 1 represents no change; a survival value of 0.1 indicates a 1-log decrease; a survival value of 10 indicates a 1-log increase; and a survival value of 0.000 represents a decrease of greater than or equal to 3-logs. In comparison, the lower the survival value, the greater the component's capacity for controlling organism growth.

Klebsiella pneumoniae = assay: as above; conditions: single component at 0.2 μl/ml
Description: as §1

Proteus vulgaris = assay: as above; conditions: single component at 0.2 μl/ml
Description: as §1

Pseudomonas aeruginosa = assay: as above
Description: as §1

Enterococcus faecalis = assay: as above; set-up: key to Survival value enfa: 24 h count / control count; 1 = no change, 0.1 = 1-log decrease
Description: as §1

Candida albicans = assay: as above; set-up: key to Survival value caal: 24 h count / control count; 1 = no change, 0.1 = 1-log decrease
Description: as §1

Enterobacter aerogenes = assay: as above; set-up: key to Survival value enae: 24 h count / control count; 1 = no change, 0.1 = 1-log decrease
Description: as §1

[1] = system: microorganisms of interest; assay: Antimicrobial (cidal) activity against the organisms of interest taken together; conditions: component alone
Description: as §1, with “With respect to changes in microbial count, a survival value of 1 represents no change; a survival value of 0.1 indicates a 1-log decrease; a survival value of 10 indicates a 1-log increase; and a survival value of 0.000 represents a decrease of greater than or equal to 3-logs. In comparison, the lower the survival value, the greater the component's capacity for controlling organism growth.” left out

CC=Cc1ccc(O)c(OC)c1 [Isoeugenol, isoeugenol]
Concentration with cidal activity against Escherichia coli (Escherichia coli; component alone): 1.5 μl/ml
Survival value esco (Escherichia coli; single component at 0.2 μl/ml): tntc
Survival value esco (Escherichia coli; single component at 0.5 μl/ml): tntc
Survival value esco (Escherichia coli; single component at 1.5 μl/ml): 0.000
Survival value esco (Escherichia coli; single component at 2.5 μl/ml): 0.000
Survival value esco (Escherichia coli; single component at 4.6 μl/ml): 0.000
Survival value klpn (Klebsiella pneumoniae): tntc
Survival value prvu (Proteus vulgaris): tntc
Survival value psae (Pseudomonas aeruginosa; single component at 0.2 μl/ml): tntc
Survival value psae (Pseudomonas aeruginosa; single component at 1.5 μl/ml): tntc
Survival value psae (Pseudomonas aeruginosa; single component at 2.5 μl/ml): 0.398
Concentration with cidal activity against Enterococcus faecalis (Enterococcus faecalis; component alone): > 4.6 μl/ml
Survival value enfa (Enterococcus faecalis; single component at 0.2 μl/ml): tntc
Survival value enfa (Enterococcus faecalis; single component at 0.5 μl/ml): tntc
Survival value enfa (Enterococcus faecalis; single component at 1.5 μl/ml): tntc
Survival value enfa (Enterococcus faecalis; single component at 2.5 μl/ml): 0.750
Survival value enfa (Enterococcus faecalis; single component at 4.6 μl/ml): 0.460
Concentration with cidal activity against Candida albicans (Candida albicans; component alone): 2.5 μl/ml
Survival value caal (Candida albicans; single component at 0.2 μl/ml): 0.160
Survival value caal (Candida albicans; single component at 0.5 μl/ml): 2.786
Survival value caal (Candida albicans; single component at 1.5 μl/ml): 0.152
Survival value caal (Candida albicans; single component at 2.5 μl/ml): 0.000
Survival value caal (Candida albicans; single component at 4.6 μl/ml): 0.000
Concentration with cidal activity against Enterobacter aerogenes (Enterobacter aerogenes; component alone): 2.5 μl/ml
Survival value enae (Enterobacter aerogenes; single component at 1.5 μl/ml): tntc
Survival value enae (Enterobacter aerogenes; single component at 2.5 μl/ml): 0.000
Concentration required for cidal antimicrobial action for many organisms of interest [1]: greater than 1.5 μg/ml
